Measured values taken from BigSolDB 2.1.

COc1cc(Cc2cnc(N)nc2N)cc(OC)c1OC
solubility (mole fraction)
Details | 293.15 K | 298.45 K | 303.45 K | 308.15 K | 312.95 K | 318.65 K | 322.65 K
in acetonitrile | 0.00035 | 0.000437 | 0.000534 | 0.000664 | 0.000809 | 0.00103 | 0.00127
in ethanol | 0.00071 | 0.00092 | 0.00112 | 0.00134 | 0.00173 | 0.00226 | 0.00304
in ethyl acetate | 0.000276 | 0.000332 | 0.000398 | 0.000481 | 0.000606 | 0.000773 | 0.000966
in isopropanol | 0.000227 | 0.000294 | 0.000434 | 0.000543 | 0.000764 | 0.00106 | 0.00141
in water | 2e-05 | 2.49e-05 | 3.02e-05 | 3.68e-05 | 4.68e-05 | 6.05e-05 | 7.14e-05
